Test results reported in patent publication US7807781B2, “Inhibitors of serine protease activity and their use in methods and compositions for treatment of viral infections” (The Regents of the University of Colorado, priority 1999, dated 2010).
Where two headings read alike, the source gives them in different places.

Legend:
[1] = system: HIV-1 production in U1 cells; test: U1 monocytic cell assay, NaCl (hyperosmolarity)-induced HIV-1 p24 antigen; format: cell-based
[2] = system: lymphocyte-tropic HIV-1 strain A018A in PBMC; format: cell-based

AAT: Alpha-1-antitrypsin purified from the blood of healthy volunteers to single-band homogeneity
NaCl-induced 26-fold increase in p24 concentration ([1]; 60 mM NaCl, 5 mg/ml AAT): completely inhibited
mean p24 level ([1]; 60 mM NaCl, AAT 0.1 mg/ml): 11,054±3,231 pg/ml
mean p24 level ([1]; 60 mM NaCl, AAT 0.5 mg/ml): 7,363±485 pg/ml
mean p24 level ([1]; 60 mM NaCl, AAT 1.0 mg/ml): 5,657±48 pg/ml
mean p24 level ([1]; 60 mM NaCl, AAT 3.0 mg/ml): 1,919±594 pg/ml
mean p24 level ([1]; 60 mM NaCl, AAT 4.0 mg/ml): 425 ± 32 pg/mL
mean p24 level ([1]; 60 mM NaCl, AAT 5.0 mg/ml): 266 ± 26 pg/mL
percent inhibition of NaCl-induced p24 ([1]; AAT 3.0 mg/ml): 76%
percent inhibition of NaCl-induced p24 ([1]; AAT 4.0 mg/ml): 98.3%
percent inhibition of NaCl-induced p24 ([1]; AAT 5.0 mg/ml): 100%
effect on p24 antigen production of AAT present during infection only ([2]; AAT removed, 4 days of culture in medium alone): did not affect
p24 produced ([2]; PBMC infected in absence of AAT, 4 days with AAT 0.1 mg/ml): 8,687±1,304 pg/ml
p24 produced ([2]; PBMC infected in absence of AAT, 4 days with AAT 0.5 mg/ml): 7,392±1,299 pg/ml
p24 produced ([2]; PBMC infected in absence of AAT, 4 days with AAT 1.0 mg/ml): 6,613 pg/ml
p24 produced ([2]; PBMC infected in absence of AAT, 4 days with AAT 2.0 mg/ml): 6,258±1,772 pg/ml
p24 produced ([2]; PBMC infected in absence of AAT, 4 days with AAT 3.0 mg/ml): 5,275±316 pg/ml
p24 produced ([2]; PBMC infected in absence of AAT, 4 days with AAT 4.0 mg/ml): 4,725±101 pg/ml
p24 produced ([2]; PBMC infected in absence of AAT, 4 days with AAT 5.0 mg/ml): 3,508 pg/ml
reduction in p24 antigen compared to control cultures ([2]; PBMC infected in absence of AAT, AAT 4.0 mg/ml): 22%
reduction in p24 antigen compared to control cultures ([2]; PBMC infected in absence of AAT, AAT 5.0 mg/ml): 46%
p24 produced ([2]; PBMC infected in presence of 3 mg/ml AAT, 4 days with AAT 0.1 mg/ml): 6,620±2,026 pg/ml
p24 produced ([2]; PBMC infected in presence of 3 mg/ml AAT, 4 days with AAT 0.5 mg/ml): 6,047±1,322 pg/ml
p24 produced ([2]; PBMC infected in presence of 3 mg/ml AAT, 4 days with AAT 1.0 mg/ml): 6,014±2,055 pg/ml
p24 produced ([2]; PBMC infected in presence of 3 mg/ml AAT, 4 days with AAT 2.0 mg/ml): 2,516±345 pg/ml
p24 produced ([2]; PBMC infected in presence of 3 mg/ml AAT, 4 days with AAT 3.0 mg/ml): 3,360±371 pg/ml
p24 produced ([2]; PBMC infected in presence of 3 mg/ml AAT, 4 days with AAT 4.0 mg/ml): 2,743±316 pg/ml
p24 produced ([2]; PBMC infected in presence of 3 mg/ml AAT, 4 days with AAT 5.0 mg/ml): 2,713±645 pg/ml
reduction in p24 production compared to control cultures ([2]; PBMC infected in presence of 3 mg/ml AAT, AAT 2.0 mg/ml): 71%
reduction in p24 production compared to control cultures ([2]; PBMC infected in presence of 3 mg/ml AAT, AAT 3.0 mg/ml): 61%
reduction in p24 production compared to control cultures ([2]; PBMC infected in presence of 3 mg/ml AAT, AAT 4.0 mg/ml): 65%
reduction in p24 production compared to control cultures ([2]; PBMC infected in presence of 3 mg/ml AAT, AAT 5.0 mg/ml): 67%
Maximal p24 reduction in PBMC exposed to AAT for 4 days ([2]; cells infected in the absence of AAT): 46%
Maximal p24 reduction in PBMC exposed to AAT for 4 days ([2]; cells infected in the presence of AAT): 71%
